# Measurements reported in the kinase profiling compilation of Christmann-Franck et al. (2016).
# Legend:
# Assay in all cases: KINOMEscan competition binding
# Conditions in all cases: compound 10.0 µM
# [1] = target: TXK (human) (UniProt P42681)
# [2] = target: PIP5K1C (human) (UniProt O60331)
# [3] = target: STK10 (human) (UniProt O94804)
# [4] = target: MARK3 (human) (UniProt P27448)
# [5] = target: DDR2 (human) (UniProt Q16832)
# [6] = target: MAPK1 (human) (UniProt P28482)
# [7] = target: RPS6KA4 KD1 (human) (UniProt O75676)
# [8] = target: LIMK2 (human) (UniProt P53671)
# [9] = target: PRKAA2 (human) (UniProt P54646)
# [10] = target: EPHB6 (human) (UniProt O15197)
# [11] = target: ITK (human) (UniProt Q08881)
# [12] = target: IKBKE (human) (UniProt Q14164)
# [13] = target: EPHB3 (human) (UniProt P54753)
# [14] = tested on: FLT3 (human), P36888 [D835H]
# [15] = tested on: EGFR (human), P00533 [752-759 del]
# [16] = target: MAST1 (human) (UniProt Q9Y2H9)
# [17] = target: MKNK2 (human) (UniProt Q9HBH9)
# [18] = target: JAK2 JH1 catalytic (human) (UniProt O60674)
# [19] = target: TGFBR1 (human) (UniProt P36897)
# [20] = target: MAP2K2 (human) (UniProt P36507)
# [21] = target: FLT1 (human) (UniProt P17948)
# [22] = target: MAP4K5 (human) (UniProt Q9Y4K4)
# [23] = target: WEE2 (human) (UniProt P0C1S8)
# [24] = target: TRPM6 (human) (UniProt Q9BX84)
# [25] = target: CSF1R (human) (UniProt P07333)
# [26] = target: AKT1 (human) (UniProt P31749)
# [27] = target: PRKD1 (human) (UniProt Q15139)
# [28] = target: JAK1 JH2 pseudokinase (human) (UniProt P23458)
# [29] = target: MYLK2 (human) (UniProt Q9H1R3)
# [30] = target: MLTK (human) (UniProt Q9NYL2)
# [31] = target: SRC (human) (UniProt P12931)
# [32] = target: TAOK3 (human) (UniProt Q9H2K8)
# [33] = target: EPHA3 (human) (UniProt P29320)
# [34] = target: JAK3 JH1 catalytic (human) (UniProt P52333)
# [35] = target: PIM3 (human) (UniProt Q86V86)
# [36] = tested on: EGFR (human), P00533 [747-751 del / S ins]
# [37] = target: MAP4K3 (human) (UniProt Q8IVH8)
# [38] = target: CAMK1G (human) (UniProt Q96NX5)
# [39] = target: PRKACB (human) (UniProt P22694)
# [40] = target: TAOK1 (human) (UniProt Q7L7X3)
# MKNK2 (human), sequence (Q9HBH9 whole entry, looked up): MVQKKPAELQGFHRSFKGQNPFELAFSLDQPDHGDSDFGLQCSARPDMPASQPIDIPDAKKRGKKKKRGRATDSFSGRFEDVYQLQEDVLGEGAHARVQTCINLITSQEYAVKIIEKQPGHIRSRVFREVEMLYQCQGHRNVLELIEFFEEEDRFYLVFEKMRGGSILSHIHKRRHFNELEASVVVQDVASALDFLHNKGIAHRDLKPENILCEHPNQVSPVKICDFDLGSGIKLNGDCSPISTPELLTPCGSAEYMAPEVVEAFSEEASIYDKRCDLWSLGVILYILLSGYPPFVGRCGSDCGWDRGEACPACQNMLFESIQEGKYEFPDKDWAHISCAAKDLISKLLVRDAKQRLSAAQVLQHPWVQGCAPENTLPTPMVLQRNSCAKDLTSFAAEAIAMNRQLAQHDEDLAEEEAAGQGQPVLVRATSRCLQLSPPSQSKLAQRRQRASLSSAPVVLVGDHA
# EPHA3 (human), sequence (P29320 whole entry, looked up): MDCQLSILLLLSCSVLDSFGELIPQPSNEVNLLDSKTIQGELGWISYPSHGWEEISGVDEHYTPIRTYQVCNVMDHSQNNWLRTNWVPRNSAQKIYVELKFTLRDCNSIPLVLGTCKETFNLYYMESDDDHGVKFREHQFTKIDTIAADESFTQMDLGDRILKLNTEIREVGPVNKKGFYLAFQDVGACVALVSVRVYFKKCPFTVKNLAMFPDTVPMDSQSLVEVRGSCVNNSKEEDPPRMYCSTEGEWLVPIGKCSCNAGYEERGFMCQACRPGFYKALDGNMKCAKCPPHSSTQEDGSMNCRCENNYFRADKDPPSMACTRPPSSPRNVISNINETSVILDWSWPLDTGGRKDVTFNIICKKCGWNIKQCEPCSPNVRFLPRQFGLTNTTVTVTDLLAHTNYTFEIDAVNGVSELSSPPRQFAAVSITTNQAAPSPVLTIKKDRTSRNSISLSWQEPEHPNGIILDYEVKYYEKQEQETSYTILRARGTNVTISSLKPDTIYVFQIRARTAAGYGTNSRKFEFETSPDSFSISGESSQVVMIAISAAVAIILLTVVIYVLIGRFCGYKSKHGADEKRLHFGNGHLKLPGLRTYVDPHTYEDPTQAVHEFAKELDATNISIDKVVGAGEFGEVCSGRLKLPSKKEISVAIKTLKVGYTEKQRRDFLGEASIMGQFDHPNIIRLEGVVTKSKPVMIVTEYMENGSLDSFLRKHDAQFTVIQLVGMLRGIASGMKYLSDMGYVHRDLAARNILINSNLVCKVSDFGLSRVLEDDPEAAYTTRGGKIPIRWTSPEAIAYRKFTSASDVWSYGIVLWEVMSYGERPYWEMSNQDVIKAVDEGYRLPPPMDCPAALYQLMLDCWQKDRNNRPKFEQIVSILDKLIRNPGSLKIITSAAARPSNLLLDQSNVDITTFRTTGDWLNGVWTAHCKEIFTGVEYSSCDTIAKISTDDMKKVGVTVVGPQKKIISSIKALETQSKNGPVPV
# TXK (human), sequence (P42681 whole entry, looked up): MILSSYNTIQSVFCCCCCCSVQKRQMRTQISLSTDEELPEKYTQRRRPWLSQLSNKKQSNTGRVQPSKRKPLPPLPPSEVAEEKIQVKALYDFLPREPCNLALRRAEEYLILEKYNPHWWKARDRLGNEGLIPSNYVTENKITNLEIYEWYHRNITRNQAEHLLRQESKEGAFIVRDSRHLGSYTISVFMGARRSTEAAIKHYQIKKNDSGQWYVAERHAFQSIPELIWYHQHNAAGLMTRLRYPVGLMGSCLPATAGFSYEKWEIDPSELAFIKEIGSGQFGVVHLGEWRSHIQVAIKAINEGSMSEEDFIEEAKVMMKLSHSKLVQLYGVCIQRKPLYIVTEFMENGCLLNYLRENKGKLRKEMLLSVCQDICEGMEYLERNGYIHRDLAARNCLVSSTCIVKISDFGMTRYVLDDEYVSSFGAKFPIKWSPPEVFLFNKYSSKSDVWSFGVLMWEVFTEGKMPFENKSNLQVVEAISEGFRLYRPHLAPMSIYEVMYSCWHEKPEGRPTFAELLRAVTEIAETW
# IKBKE (human), sequence (Q14164 whole entry, looked up): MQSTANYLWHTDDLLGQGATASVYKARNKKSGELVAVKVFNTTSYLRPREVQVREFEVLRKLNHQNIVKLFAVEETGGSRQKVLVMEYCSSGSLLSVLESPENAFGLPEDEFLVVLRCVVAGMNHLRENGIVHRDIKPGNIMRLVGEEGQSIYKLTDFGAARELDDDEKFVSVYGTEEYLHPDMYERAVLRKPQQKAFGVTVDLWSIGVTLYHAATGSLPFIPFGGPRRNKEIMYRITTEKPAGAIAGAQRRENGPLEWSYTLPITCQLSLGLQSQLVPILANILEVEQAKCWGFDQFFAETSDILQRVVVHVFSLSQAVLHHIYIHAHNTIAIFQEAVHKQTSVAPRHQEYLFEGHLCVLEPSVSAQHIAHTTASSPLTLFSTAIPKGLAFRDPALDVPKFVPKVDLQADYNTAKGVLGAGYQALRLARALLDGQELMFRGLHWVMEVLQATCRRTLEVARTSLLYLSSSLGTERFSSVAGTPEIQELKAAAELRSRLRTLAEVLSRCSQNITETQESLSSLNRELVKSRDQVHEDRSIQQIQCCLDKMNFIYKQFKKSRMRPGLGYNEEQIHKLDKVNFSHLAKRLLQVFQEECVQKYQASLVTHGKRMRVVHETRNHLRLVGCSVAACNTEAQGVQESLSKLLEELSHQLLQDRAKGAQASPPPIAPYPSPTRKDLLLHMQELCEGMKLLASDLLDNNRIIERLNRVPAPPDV
# EGFR (human), P00533 [752-759 del], sequence (P00533 whole entry, looked up, stated change not applied): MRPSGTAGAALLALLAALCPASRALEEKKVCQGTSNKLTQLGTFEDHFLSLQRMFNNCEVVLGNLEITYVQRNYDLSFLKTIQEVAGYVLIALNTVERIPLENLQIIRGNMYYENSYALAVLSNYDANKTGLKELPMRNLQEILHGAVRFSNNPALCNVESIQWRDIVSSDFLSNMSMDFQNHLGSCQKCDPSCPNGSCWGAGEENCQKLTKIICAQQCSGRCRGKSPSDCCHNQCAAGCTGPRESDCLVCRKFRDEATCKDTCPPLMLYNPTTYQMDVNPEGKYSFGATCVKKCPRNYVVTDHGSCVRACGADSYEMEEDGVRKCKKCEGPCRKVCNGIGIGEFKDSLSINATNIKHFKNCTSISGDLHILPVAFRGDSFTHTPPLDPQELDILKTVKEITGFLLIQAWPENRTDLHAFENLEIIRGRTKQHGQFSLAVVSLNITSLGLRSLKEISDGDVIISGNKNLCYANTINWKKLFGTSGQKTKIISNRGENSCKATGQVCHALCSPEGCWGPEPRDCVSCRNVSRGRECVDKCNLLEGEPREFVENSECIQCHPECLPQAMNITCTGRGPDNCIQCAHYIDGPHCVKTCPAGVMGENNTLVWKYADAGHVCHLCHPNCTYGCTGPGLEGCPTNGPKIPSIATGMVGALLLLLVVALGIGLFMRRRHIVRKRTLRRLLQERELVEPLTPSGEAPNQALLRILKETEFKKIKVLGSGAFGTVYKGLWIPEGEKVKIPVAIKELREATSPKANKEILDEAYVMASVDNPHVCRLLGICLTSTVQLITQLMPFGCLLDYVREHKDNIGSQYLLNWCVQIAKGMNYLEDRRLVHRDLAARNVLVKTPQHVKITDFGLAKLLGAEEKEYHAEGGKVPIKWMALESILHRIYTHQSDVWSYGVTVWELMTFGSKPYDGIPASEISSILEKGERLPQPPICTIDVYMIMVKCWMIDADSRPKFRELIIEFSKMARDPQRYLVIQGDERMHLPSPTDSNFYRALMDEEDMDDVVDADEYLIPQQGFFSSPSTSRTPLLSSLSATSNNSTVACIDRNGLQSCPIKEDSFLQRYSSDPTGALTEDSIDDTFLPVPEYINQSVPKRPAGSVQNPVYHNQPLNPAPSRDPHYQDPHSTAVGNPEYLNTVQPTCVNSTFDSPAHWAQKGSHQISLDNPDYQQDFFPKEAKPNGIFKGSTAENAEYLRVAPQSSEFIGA
# PRKAA2 (human), sequence (P54646 whole entry, looked up): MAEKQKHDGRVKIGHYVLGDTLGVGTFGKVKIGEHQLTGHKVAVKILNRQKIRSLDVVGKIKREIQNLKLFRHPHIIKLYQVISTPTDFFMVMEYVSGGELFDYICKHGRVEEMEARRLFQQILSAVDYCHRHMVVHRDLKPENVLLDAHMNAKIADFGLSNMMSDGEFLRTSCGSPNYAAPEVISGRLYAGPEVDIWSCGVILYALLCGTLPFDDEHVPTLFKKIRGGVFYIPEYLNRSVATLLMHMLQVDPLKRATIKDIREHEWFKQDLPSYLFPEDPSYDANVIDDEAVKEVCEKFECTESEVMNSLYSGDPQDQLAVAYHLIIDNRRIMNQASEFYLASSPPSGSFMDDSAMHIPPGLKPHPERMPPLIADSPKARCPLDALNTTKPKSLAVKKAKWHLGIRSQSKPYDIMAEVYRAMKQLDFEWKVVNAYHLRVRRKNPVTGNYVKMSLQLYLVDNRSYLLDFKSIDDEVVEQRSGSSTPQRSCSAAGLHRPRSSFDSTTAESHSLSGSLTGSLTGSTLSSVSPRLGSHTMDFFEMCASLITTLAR
SMILES,"kinase still bound, per cent of control [1] [%]","kinase still bound, per cent of control [2] [%]","kinase still bound, per cent of control [3] [%]","kinase still bound, per cent of control [4] [%]","kinase still bound, per cent of control [5] [%]","kinase still bound, per cent of control [6] [%]","kinase still bound, per cent of control [7] [%]","kinase still bound, per cent of control [8] [%]","kinase still bound, per cent of control [9] [%]","kinase still bound, per cent of control [10] [%]","kinase still bound, per cent of control [11] [%]","kinase still bound, per cent of control [12] [%]","kinase still bound, per cent of control [13] [%]","kinase still bound, per cent of control [14] [%]","kinase still bound, per cent of control [15] [%]","kinase still bound, per cent of control [16] [%]","kinase still bound, per cent of control [17] [%]","kinase still bound, per cent of control [18] [%]","kinase still bound, per cent of control [19] [%]","kinase still bound, per cent of control [20] [%]",further results
O=C(Nc1cccc(Nc2ncc(Br)c(NCCc3cnc[nH]3)n2)c1)N1CCCC1,17,22,4.6,0.3,65,77,2.1,59,0.5,0.2,4.5,4.6,100,0.2,66,58,0.1,0,77,0.2,"kinase still bound, per cent of control [21]: 0.6%; kinase still bound, per cent of control [22]: 9.6%; kinase still bound, per cent of control [23]: 36%; kinase still bound, per cent of control [24]: 76%; kinase still bound, per cent of control [25]: 1.4%; kinase still bound, per cent of control [26]: 100%; kinase still bound, per cent of control [27]: 0.65%; kinase still bound, per cent of control [28]: 0.2%; kinase still bound, per cent of control [29]: 0.35%; kinase still bound, per cent of control [30]: 12%; kinase still bound, per cent of control [31]: 4%; kinase still bound, per cent of control [32]: 0.1%; kinase still bound, per cent of control [33]: 21%; kinase still bound, per cent of control [34]: 0%; kinase still bound, per cent of control [35]: 69%; kinase still bound, per cent of control [36]: 67%; kinase still bound, per cent of control [37]: 4.6%; kinase still bound, per cent of control [38]: 28%; kinase still bound, per cent of control [39]: 1%; kinase still bound, per cent of control [40]: 0.25%"
COc1ccc(N(C(=O)Oc2c(C)cccc2C)c2ccnc(Nc3ccc(N4CCN(C)CC4)cc3)n2)c(OC)c1,0.45,96,0,4.8,0,87,100,0,7.9,1.2,100,78,0,3,1,100,90,35,0.75,46,"kinase still bound, per cent of control [21]: 11%; kinase still bound, per cent of control [22]: 0.7%; kinase still bound, per cent of control [23]: 100%; kinase still bound, per cent of control [24]: 100%; kinase still bound, per cent of control [25]: 0.1%; kinase still bound, per cent of control [26]: 100%; kinase still bound, per cent of control [27]: 9.3%; kinase still bound, per cent of control [28]: 84%; kinase still bound, per cent of control [29]: 0.95%; kinase still bound, per cent of control [30]: 24%; kinase still bound, per cent of control [31]: 0.05%; kinase still bound, per cent of control [32]: 4%; kinase still bound, per cent of control [33]: 9.4%; kinase still bound, per cent of control [34]: 0.25%; kinase still bound, per cent of control [35]: 92%; kinase still bound, per cent of control [36]: 0%; kinase still bound, per cent of control [37]: 1.4%; kinase still bound, per cent of control [38]: 73%; kinase still bound, per cent of control [39]: 2.5%; kinase still bound, per cent of control [40]: 11%"
